Laboratory results taken from patent US20050209336A1, “EP2 receptor agonists” (priority 2003, published 2005).
Where two headings read alike, the source gives them in different places.

Assays:
human EP1 receptor = molecular target: T1, human EP1 receptor (Homo sapiens, UniProt P34995); test: Radioligand ([3H]PGE2) competition displacement binding, human EP1 receptor membranes; settings: [3H]PGE2 displacement, read-out: pKi EP1 (converted)
T1 construct: expressed in transfected cells
T1 sequence (P34995 1-402): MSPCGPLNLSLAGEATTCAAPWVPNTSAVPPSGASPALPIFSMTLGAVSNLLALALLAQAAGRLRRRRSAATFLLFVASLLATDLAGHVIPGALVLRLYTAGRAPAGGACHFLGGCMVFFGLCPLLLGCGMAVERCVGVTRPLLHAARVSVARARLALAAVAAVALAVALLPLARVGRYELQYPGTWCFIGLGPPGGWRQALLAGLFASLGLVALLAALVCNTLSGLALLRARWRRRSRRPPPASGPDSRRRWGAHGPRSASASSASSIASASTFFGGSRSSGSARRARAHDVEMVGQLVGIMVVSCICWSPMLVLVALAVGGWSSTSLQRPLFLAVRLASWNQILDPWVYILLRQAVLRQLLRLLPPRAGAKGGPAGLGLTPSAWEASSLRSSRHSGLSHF
Description: Membranes were prepared from cells stably transfected with human EP receptor cDNA. In brief, cells were cultured to confluency, scraped from culture flasks, and centrifuged (800 g, 8 minutes, 4° C.). Cells were twice washed in ice cold homogenisation buffer containing 10 mMTris-HCl, 1 mM EDTA.2Na, 250 mM sucrose, 1 mM PMSF, 0.3 mM indomethacin, pH 7.4, homogenised and re-centrifuged as before. The supernatant was stored on ice and pellets re-homogenised and re-spun. Supernatants were pooled and centrifuged at 40000 g, 10 minutes, 4° C. Resultant membrane pellets were stored at −80° C. until use.
For assay, membranes expressing human EP4, EP3, EP2 or EP1 receptors were incubated in Millipore (MHVBN45) plates containing assay buffer, radiolabelled [^3H]PGE2 and 0.1 to 10 000 nM concentrations of compounds. Incubations were performed at suitable temperatures and for suitable times to allow equilibrium to be reached. Non-specific binding was determined in the presence of 10 uM PGE2. Bound and free radiolabel was separated by vacuum manifold filtration using appropriate wash buffers, and bound radiolabel was determined by scintillation counting. Constituents of each of the buffers are included in table 4 below.
The affinity or pKi of each compound for each receptor was calculated from the concentration causing 50% radioligand displacement (IC50) using the Cheng-Prusoff equation: [formula] […]

[1] = test system: TNFα production by alveolar macrophages; test: Alveolar macrophage assay: LPS-induced TNFα release; assay type: cell-based, human; settings: Homo sapiens, Macrophage, inhibition of TNFα production, LPS 1 μg/ml, 24 h, mean of three donors
Description: Human lung parenchyma was cut into small pieces and perfused with ice-cold phosphate buffered saline (PBS) to remove contaminating blood and mucus. The tissues were then chopped with scissors in the presence of Minimum Essential Medium supplemented with penicillin, streptomycin, L-glutamine and DNase (0.25 mg/ml). The chopped tissues were shaken gently to dislodge the macrophages. A crude cell suspension was then obtained by the removal of the tissues with a sterile filter (150 μm pore size). The resulting cell suspension was spun and the cell pellet collected. Contaminating red blood cells were depleted with a red blood cell lysis buffer and the remaining cells washed twice with PBS by centrifugation. Alveolar macrophages were then purified from this cell preparation by using a positive selection method for CD14-molecule bearing cells using a VarioMac™ Separator and respective positive selection reagents and columns supplied by Miltenyi Biotec Ltd according to the manufacturer's instruction.
For the assay, alveolar macrophages were resuspended in complete culture medium consisting of RPMI1640 supplemented with 10% foetal calf serum, L-glutamine and antibiotics. The cells were then plated into 24 well plates (4×10^5 cell/well) and incubated overnight at 37° C. with 5% CO2 in air to allow cell adherence. The exhausted medium was then removed from the plates and the plates rinsed briefly with fresh medium before the addition of test compound solutions. The test compounds were incubated with the cells for 30 minutes before the addition of E. Coli LPS (1 μg/ml). The assay plates were incubated in a humidified incubator at 37° C. with 5% CO2 in air for 24 hours. The release of TNFα by the cells into the culture supernatants was quantified using an ELISA kit (DuoSet® human TNFα ELSIA Development System) supplied by R+D Systems (Europe) according to the manufacturer's instruction. Indomethacin at 3 μM was included in all treatments to inhibit the possible release of endogenous prostaglandin E2.

| Structure (SMILES) | Ki (human EP1 receptor) [µM] | EC50 ([1]; read-out: Mean EC50) [µM] | EC50 ([1]; log scale, read-out: Mean Log (EC50) (converted)) [µM] |
| --- | --- | --- | --- |
| CCCCCC(O)c1ccc(C2CCC(=O)C2CCCCCCC(=O)O)cc1 (racemic) [AH13205, (±)-trans-2-[4-(1-hydroxyhexyl)phenyl]-5-oxo-cyclopentaneheptanoic acid, reference compound] | 10 | – | – |
| CCCCC[C@H](O)c1ccc([C@H]2CCC(=O)[C@@H]2CCCCCCC(=O)O)cc1 (single isomer, unassigned) [Peak 1, Mixture 1 acid] | – | 7.02 | 7.01 |
